ChEMBL document CHEMBL5523758, “Discovery of 2-Methyl-5-(1H-pyrazol-4-yl)pyridines and Related Heterocycles as Promising M4 mAChR Positive Allosteric Modulators for the Treatment of Neurocognitive Disorders” (J Med Chem, 2024)

Assays:
[1] = biological target: T1, Muscarinic acetylcholine receptor M4 (Homo sapiens) (UniProt P08173); conditions: Flp-In-CHO, filed as positive allosteric modulator, time 8.0 min
T1 sequence (whole entry): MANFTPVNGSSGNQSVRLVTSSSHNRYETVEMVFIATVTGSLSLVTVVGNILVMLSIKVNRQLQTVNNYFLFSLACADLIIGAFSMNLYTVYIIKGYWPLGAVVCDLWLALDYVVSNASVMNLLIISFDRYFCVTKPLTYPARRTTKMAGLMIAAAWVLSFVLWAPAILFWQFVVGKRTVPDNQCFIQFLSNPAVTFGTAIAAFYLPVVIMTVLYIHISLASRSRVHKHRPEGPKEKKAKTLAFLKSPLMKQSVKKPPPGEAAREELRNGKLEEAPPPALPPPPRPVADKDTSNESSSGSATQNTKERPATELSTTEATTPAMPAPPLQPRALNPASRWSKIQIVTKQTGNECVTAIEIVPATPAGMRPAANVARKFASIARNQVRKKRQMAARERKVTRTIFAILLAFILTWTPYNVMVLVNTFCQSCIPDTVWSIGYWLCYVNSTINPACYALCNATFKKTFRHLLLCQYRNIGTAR

[2] = biological target: T1, Muscarinic acetylcholine receptor M4 (Homo sapiens); conditions: Flp-In-CHO, filed as positive allosteric modulator
Description: Positive allosteric modulation at human M4 mAChR stably expressed in Flp-In-CHO cells co-transfected with CAMYEL biosensor assessed as ACh-induced CAMYEL activation by measuring log of functional co-operativity by BRET assay

[3] = biological target: T1, Muscarinic acetylcholine receptor M4 (Homo sapiens); conditions: Flp-In-CHO, filed as positive allosteric modulator, time 8.0 min; remark: listed apart in the source
[4] = biological target: T1, Muscarinic acetylcholine receptor M4 (Homo sapiens); conditions: Flp-In-CHO
Description: Positive allosteric modulation at human M4 mAChR stably expressed in Flp-In-CHO cells co-transfected with CAMYEL biosensor assessed as ACh-induced CAMYEL activation by measuring log of operational efficacy by BRET assay

[5] = biological target: T1, Muscarinic acetylcholine receptor M4 (Homo sapiens); conditions: Flp-In-CHO, filed as positive allosteric modulator, time 8.0 min; remark: listed apart in the source
[6] = biological target: T1, Muscarinic acetylcholine receptor M4 (Homo sapiens); conditions: Flp-In-CHO, dose 10.0 µM, time 8.0 min
[7] = biological target: T1, Muscarinic acetylcholine receptor M4 (Homo sapiens); conditions: Flp-In-CHO, time 5.0 min
[8] = biological target: T1, Muscarinic acetylcholine receptor M4 (Homo sapiens); conditions: Flp-In-CHO, filed as positive allosteric modulator, time 5.0 min
[9] = filed as positive allosteric modulator

Structure (SMILES): Cc1ncc(-c2cnn(CC3CCCC3)c2)c(-c2ccc3c(c2)C(=O)N(C)C3)n1
- pKb [1]: 4.71
- log(activity) [2]: 0.74
- log(activity) [3]: 1.3
- log(activity) [4, 9]: 0.1
- log(activity) [5]: 1.92

Structure (SMILES): Cc1ccc(-c2cnn(CCCCC(=O)O)c2)c(-c2ccc3c(c2)C(=O)N(C)C3)n1
- deltapEC50 [6]: > 0.4

Structure (SMILES): Cc1ccc(-c2cnn(CCCN)c2)c(-c2ccc3c(c2)C(=O)N(C)C3)n1
- pKb [1]: 4.79
- log(activity) [2]: 0.44
- log(activity) [3]: 0.85
- log(activity) [4]: -0.47
- log(activity) [5]: 1.56

Structure (SMILES): CN1Cc2ccc(-c3nc4ccccc4cc3-c3cnn(CC4CCCC4)c3)cc2C1=O
- deltapEC50 [6]: > 0.4
- log(activity) [7]: -0.28
- pKb [1]: 4.53
- log(activity) [2]: 1.99
- log(activity) [3]: 1.56
- log(activity) [4, 9]: 0.84
- log(activity) [5]: 2.01
- log(activity) [8]: 1.92

Structure (SMILES): Cc1ccc(-c2cnn(CCCC(=O)O)c2)c(-c2ccc3c(c2)C(=O)N(C)C3)n1
- deltapEC50 [6]: > 0.4

Structure (SMILES): Cc1ccc(-c2cnn(CC3CCCC3)c2)c(-c2ccc3c(c2)C(=O)N(CC#N)C3)n1
- pKb [1]: 5.26
- log(activity) [2]: 1
- log(activity) [3]: 1.55
- log(activity) [4, 9]: 0.48
- log(activity) [5]: 1.94

Structure (SMILES): COC(=O)CCCCn1cc(-c2ccc(C)nc2-c2ccc3c(c2)C(=O)N(C)C3)cn1
- deltapEC50 [6]: > 0.4

Structure (SMILES): COC(=O)CCCn1cc(-c2ccc(C)nc2-c2ccc3c(c2)C(=O)N(C)C3)cn1
- pKb [1]: 4.73
- log(activity) [2]: 1.04
- log(activity) [3]: 1.05
- log(activity) [4, 9]: 0.18
- log(activity) [5]: 1.94

Structure (SMILES): Cc1ccc(-c2cnn(CC3CCCC3)c2)c(-c2ccc3c(c2)C(=O)NC3)n1
- pKb [1]: 5.65
- log(activity) [2]: 1.07
- log(activity) [3]: 1.72
- log(activity) [4, 9]: 0.5
- log(activity) [5]: 2.15

Structure (SMILES): Cc1ccc(-c2cnn(CCC(N)=O)c2)c(-c2ccc3c(c2)C(=O)N(C)C3)n1
- deltapEC50 [6]: > 0.4

Structure (SMILES): Cc1cnc(-c2ccc3c(c2)C(=O)N(C)C3)c(-c2cnn(CC3CCCC3)c2)c1
- log(activity) [7, 9]: 0.08
- pKb [1]: 4.73
- log(activity) [2]: 2.12
- log(activity) [3]: 2.17
- log(activity) [4, 9]: 1.17
- log(activity) [5]: 2.53
- log(activity) [8]: 2.3

Structure (SMILES): Cc1ccc(-c2cnn(CC3CCCC3)c2)c(-c2ccc3c(c2)C(=O)N(C)C3)n1
- log(activity) [7, 9]: 0.02
- pKb [1]: 5.86
- log(activity) [2]: 0.53
- log(activity) [3]: 1.58
- log(activity) [4, 9]: 0.25
- log(activity) [5]: 1.74
- log(activity) [8]: 1.89

Structure (SMILES): Cc1ccc(-c2cnn(CCC#N)c2)c(-c2ccc3c(c2)C(=O)N(C)C3)n1
- deltapEC50 [6]: > 0.4
- pKb [1]: 4.74
- log(activity) [2]: 0.84
- log(activity) [3]: 0.88
- log(activity) [4]: -0.64
- log(activity) [5]: 1.49

Structure (SMILES): Cc1ccc(-c2cnn(CCCCC#N)c2)c(-c2ccc3c(c2)C(=O)N(C)C3)n1
- pKb [1]: 4.55
- log(activity) [2]: 1.03
- log(activity) [3]: 1.16
- log(activity) [4, 9]: 0.28
- log(activity) [5]: 1.93

Structure (SMILES): COC(=O)CCn1cc(-c2ccc(C)nc2-c2ccc3c(c2)C(=O)N(C)C3)cn1
- deltapEC50 [6]: > 0.4
- pKb [1]: 4.57
- log(activity) [2]: 1.08
- log(activity) [3]: 0.73
- log(activity) [4]: -0.28
- log(activity) [5]: 1.46
